ChEMBL document CHEMBL4507275, “Data for DCP probe BI-2545” (2021)

Tests used:
[1] = molecular target: RAC-gamma serine/threonine-protein kinase (Homo sapiens) (UniProt Q9Y243); settings: Compound concentration 1000.0 nM
[2] = molecular target: Cyclin-dependent kinase 4 (Homo sapiens) (UniProt P11802); settings: Compound concentration 1000.0 nM
[3] = molecular target: Cyclin-dependent kinase-like 3 (Homo sapiens) (UniProt Q8IVW4); settings: Compound concentration 1000.0 nM
[4] = molecular target: Casein kinase I isoform gamma-3 (Homo sapiens) (UniProt Q9Y6M4); settings: Compound concentration 1000.0 nM
Chain of Casein kinase I isoform gamma-3 (Homo sapiens) (Q9Y6M4 whole entry, looked up, canonical isoform): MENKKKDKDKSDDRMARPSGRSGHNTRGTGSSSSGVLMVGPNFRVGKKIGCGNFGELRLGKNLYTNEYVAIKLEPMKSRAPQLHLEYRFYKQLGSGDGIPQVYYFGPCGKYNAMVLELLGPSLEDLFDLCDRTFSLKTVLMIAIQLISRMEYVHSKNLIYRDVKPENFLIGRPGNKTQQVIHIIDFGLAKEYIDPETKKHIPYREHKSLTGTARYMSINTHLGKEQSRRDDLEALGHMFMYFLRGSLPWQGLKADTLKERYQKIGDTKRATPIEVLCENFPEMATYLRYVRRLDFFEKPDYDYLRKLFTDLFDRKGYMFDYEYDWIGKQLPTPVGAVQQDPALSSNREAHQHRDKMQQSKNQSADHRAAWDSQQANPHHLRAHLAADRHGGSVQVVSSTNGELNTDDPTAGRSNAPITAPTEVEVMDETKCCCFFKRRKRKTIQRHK

[5] = molecular target: Megakaryocyte-associated tyrosine-protein kinase (Homo sapiens) (UniProt P42679); settings: Compound concentration 1000.0 nM
Chain of Megakaryocyte-associated tyrosine-protein kinase (Homo sapiens) (P42679 whole entry): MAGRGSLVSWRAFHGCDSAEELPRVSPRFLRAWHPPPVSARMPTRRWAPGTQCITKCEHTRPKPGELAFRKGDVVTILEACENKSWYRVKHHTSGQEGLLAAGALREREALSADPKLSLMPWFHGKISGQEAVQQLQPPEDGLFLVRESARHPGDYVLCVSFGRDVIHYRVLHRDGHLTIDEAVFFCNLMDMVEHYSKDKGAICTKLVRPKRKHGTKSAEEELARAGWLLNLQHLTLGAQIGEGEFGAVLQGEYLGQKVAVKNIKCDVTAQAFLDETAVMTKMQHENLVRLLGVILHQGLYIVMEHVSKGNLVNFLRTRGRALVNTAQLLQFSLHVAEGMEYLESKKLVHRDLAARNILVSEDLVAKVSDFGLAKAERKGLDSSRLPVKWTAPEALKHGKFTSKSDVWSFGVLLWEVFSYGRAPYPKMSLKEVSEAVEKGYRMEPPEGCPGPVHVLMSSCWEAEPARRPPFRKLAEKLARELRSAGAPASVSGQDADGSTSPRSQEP

[6] = molecular target: Dual specificity tyrosine-phosphorylation-regulated kinase 1B (Homo sapiens) (UniProt Q9Y463); settings: Compound concentration 1000.0 nM
[7] = test system: Epidermal growth factor receptor (Homo sapiens), P00533 [UNDEFINED MUTATION]; settings: Compound concentration 1000.0 nM
Chain of Epidermal growth factor receptor (Homo sapiens), P00533 [UNDEFINED MUTATION] (P00533 whole entry, looked up, change not shown): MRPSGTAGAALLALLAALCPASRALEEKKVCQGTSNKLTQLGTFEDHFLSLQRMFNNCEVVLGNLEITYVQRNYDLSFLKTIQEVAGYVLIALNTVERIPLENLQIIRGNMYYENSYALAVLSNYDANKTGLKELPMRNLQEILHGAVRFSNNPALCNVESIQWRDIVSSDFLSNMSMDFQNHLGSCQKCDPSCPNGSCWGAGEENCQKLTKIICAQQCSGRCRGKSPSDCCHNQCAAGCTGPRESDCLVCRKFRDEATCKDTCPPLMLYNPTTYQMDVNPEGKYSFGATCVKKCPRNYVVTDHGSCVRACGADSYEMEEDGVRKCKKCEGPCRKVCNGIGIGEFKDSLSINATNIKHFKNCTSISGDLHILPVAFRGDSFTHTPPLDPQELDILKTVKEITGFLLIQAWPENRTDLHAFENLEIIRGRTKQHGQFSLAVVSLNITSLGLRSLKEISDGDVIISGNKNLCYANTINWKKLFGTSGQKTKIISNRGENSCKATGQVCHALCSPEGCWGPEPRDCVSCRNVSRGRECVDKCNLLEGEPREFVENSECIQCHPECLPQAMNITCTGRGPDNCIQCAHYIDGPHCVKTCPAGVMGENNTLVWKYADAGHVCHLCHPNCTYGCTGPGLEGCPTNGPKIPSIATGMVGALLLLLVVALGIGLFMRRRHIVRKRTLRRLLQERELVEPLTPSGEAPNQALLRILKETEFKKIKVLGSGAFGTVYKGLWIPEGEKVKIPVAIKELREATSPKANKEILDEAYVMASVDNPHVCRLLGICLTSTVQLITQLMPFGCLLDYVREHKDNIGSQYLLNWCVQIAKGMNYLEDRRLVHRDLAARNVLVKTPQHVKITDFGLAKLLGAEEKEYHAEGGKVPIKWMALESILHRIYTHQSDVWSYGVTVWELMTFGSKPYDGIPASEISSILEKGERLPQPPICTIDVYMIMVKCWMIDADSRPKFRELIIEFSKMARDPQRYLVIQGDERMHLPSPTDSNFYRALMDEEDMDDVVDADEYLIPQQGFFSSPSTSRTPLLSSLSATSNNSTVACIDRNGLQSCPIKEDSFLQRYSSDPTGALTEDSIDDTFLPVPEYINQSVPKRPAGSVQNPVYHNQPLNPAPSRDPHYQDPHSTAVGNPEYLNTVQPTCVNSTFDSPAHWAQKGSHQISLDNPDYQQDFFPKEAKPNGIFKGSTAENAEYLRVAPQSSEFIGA

[8] = test system: Epidermal growth factor receptor (Homo sapiens), P00533 [UNDEFINED MUTATION]; settings: Compound concentration 1000.0 nM; remark: listed apart in the source
[9] = molecular target: Ephrin type-B receptor 2 (Homo sapiens) (UniProt P29323); settings: Compound concentration 1000.0 nM
[10] = molecular target: Ephrin type-B receptor 3 (Homo sapiens) (UniProt P54753); settings: Compound concentration 1000.0 nM
[11] = test system: Receptor-type tyrosine-protein kinase FLT3 (Homo sapiens), P36888 [UNDEFINED MUTATION]; settings: Compound concentration 1000.0 nM
[12] = test system: Receptor-type tyrosine-protein kinase FLT3 (Homo sapiens), P36888 [R834Q]; settings: Compound concentration 1000.0 nM
[13] = molecular target: Interleukin-1 receptor-associated kinase 4 (Homo sapiens) (UniProt Q9NWZ3); settings: Compound concentration 1000.0 nM
[14] = test system: Mast/stem cell growth factor receptor Kit (Homo sapiens), P10721 [V559D,T670I]; settings: Compound concentration 1000.0 nM
Chain of Mast/stem cell growth factor receptor Kit (Homo sapiens), P10721 [V559D,T670I] (P10721 whole entry V559D/T670I, the tested form may be a part): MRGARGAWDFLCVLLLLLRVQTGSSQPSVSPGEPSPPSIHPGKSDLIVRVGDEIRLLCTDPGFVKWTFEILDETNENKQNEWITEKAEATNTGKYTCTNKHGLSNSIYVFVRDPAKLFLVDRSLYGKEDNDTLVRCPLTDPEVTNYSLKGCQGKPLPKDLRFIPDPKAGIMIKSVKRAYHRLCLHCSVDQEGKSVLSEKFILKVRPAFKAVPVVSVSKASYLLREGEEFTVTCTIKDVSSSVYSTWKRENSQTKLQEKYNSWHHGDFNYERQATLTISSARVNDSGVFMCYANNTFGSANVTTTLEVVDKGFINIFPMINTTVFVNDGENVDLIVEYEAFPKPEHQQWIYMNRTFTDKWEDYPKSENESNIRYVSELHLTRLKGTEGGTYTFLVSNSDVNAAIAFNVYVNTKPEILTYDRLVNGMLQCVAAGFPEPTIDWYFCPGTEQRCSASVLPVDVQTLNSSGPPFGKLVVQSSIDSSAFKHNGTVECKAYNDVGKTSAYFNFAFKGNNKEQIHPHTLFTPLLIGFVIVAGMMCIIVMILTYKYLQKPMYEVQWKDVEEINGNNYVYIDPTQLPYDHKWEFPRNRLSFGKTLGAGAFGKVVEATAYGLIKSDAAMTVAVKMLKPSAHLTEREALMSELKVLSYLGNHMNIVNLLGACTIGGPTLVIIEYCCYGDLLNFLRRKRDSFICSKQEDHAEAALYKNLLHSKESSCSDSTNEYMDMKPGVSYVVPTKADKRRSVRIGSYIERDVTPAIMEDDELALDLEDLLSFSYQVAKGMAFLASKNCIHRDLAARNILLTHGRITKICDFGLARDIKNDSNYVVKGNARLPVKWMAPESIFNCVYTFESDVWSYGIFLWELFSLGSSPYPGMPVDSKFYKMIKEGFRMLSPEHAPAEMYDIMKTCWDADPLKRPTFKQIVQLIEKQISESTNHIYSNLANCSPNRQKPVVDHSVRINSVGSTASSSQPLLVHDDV

[15] = molecular target: LIM domain kinase 2 (Homo sapiens) (UniProt P53671); settings: Compound concentration 1000.0 nM
[16] = molecular target: Leucine-rich repeat serine/threonine-protein kinase 2 (Homo sapiens) (UniProt Q5S007); settings: Compound concentration 1000.0 nM
[17] = molecular target: Dual specificity mitogen-activated protein kinase kinase 4 (Homo sapiens) (UniProt P45985); settings: Compound concentration 1000.0 nM
[18] = molecular target: Myosin light chain kinase (Homo sapiens) (UniProt Q32MK0); settings: Compound concentration 1000.0 nM
[19] = molecular target: Serine/threonine-protein kinase 24 (Homo sapiens) (UniProt Q9Y6E0); settings: Compound concentration 1000.0 nM
Chain of Serine/threonine-protein kinase 24 (Homo sapiens) (Q9Y6E0 whole entry, looked up): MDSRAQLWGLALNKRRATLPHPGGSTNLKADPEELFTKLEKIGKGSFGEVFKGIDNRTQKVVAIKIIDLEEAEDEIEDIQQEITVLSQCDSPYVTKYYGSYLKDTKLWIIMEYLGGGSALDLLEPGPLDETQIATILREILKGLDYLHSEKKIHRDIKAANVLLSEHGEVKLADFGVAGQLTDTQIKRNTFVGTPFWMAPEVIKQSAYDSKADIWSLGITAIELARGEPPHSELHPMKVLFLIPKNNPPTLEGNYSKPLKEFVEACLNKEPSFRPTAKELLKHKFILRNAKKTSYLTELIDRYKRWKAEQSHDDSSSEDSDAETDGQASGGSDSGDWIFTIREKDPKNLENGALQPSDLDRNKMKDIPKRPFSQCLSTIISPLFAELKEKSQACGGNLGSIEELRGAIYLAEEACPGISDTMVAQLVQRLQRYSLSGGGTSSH

[20] = molecular target: Myosin light chain kinase, smooth muscle (Homo sapiens) (UniProt Q15746); settings: Compound concentration 1000.0 nM
[21] = molecular target: Serine/threonine-protein kinase Nek4 (Homo sapiens) (UniProt P51957); settings: Compound concentration 1000.0 nM
[22] = molecular target: Mitogen-activated protein kinase 13 (Homo sapiens) (UniProt O15264); settings: Compound concentration 1000.0 nM
[23] = molecular target: Phosphatidylinositol 4-phosphate 3-kinase C2 domain-containing subunit beta (Homo sapiens) (UniProt O00750); settings: Compound concentration 1000.0 nM
[24] = test system: Phosphatidylinositol 4,5-bisphosphate 3-kinase catalytic subunit alpha isoform (Homo sapiens), P42336 [E542K]; settings: Compound concentration 1000.0 nM
[25] = test system: Phosphatidylinositol 4,5-bisphosphate 3-kinase catalytic subunit alpha isoform (Homo sapiens), P42336 [I800L]; settings: Compound concentration 1000.0 nM
[26] = molecular target: Protein kinase C epsilon type (Homo sapiens) (UniProt Q02156); settings: Compound concentration 1000.0 nM
[27] = molecular target: cGMP-dependent protein kinase 2 (Homo sapiens) (UniProt Q13237); settings: Compound concentration 1000.0 nM
[28] = molecular target: Ribosomal protein S6 kinase alpha-5 (Homo sapiens) (UniProt O75582); settings: Compound concentration 1000.0 nM
Chain of Ribosomal protein S6 kinase alpha-5 (Homo sapiens) (O75582 whole entry, looked up): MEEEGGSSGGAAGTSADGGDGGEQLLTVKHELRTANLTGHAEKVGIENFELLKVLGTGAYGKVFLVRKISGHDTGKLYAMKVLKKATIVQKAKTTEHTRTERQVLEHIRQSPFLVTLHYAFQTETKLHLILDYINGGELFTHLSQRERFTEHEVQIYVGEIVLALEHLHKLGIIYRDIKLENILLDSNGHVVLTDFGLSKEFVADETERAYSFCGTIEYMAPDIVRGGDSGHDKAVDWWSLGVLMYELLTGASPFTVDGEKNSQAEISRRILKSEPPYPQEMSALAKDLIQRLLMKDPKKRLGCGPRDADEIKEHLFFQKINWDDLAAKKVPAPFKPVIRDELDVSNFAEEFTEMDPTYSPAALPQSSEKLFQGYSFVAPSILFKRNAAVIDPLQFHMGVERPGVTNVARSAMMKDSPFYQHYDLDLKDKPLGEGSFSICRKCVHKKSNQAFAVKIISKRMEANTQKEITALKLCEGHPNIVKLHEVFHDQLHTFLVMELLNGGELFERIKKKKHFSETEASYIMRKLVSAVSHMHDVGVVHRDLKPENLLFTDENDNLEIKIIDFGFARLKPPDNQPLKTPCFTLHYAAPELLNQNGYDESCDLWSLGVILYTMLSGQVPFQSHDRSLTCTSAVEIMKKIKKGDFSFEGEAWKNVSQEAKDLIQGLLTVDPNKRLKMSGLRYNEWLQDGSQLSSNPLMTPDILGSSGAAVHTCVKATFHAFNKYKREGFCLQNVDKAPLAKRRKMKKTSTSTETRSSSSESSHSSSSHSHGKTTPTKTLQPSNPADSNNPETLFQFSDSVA

[29] = molecular target: Uncharacterized serine/threonine-protein kinase SBK3 (Homo sapiens) (UniProt P0C264); settings: Compound concentration 1000.0 nM
[30] = molecular target: Tyrosine-protein kinase receptor TYRO3 (Homo sapiens) (UniProt Q06418); settings: Compound concentration 1000.0 nM
[31] = molecular target: Serine/threonine-protein kinase ULK3 (Homo sapiens) (UniProt Q6PHR2); settings: Compound concentration 1000.0 nM
Chain of Serine/threonine-protein kinase ULK3 (Homo sapiens) (Q6PHR2 whole entry): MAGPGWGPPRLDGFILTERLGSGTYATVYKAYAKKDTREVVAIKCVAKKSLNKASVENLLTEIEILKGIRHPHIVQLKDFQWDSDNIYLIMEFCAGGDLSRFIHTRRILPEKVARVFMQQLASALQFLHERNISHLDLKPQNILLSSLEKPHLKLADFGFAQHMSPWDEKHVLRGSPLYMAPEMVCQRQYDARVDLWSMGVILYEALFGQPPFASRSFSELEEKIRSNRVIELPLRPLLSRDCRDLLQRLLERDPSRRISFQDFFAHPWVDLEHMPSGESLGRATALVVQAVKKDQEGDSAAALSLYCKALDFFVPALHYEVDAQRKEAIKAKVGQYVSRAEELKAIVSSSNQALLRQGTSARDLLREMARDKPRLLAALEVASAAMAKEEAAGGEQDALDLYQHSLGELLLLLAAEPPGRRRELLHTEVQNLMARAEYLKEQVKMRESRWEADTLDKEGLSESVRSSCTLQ

[32] = molecular target: Serine/threonine-protein kinase WNK3 (Homo sapiens) (UniProt Q9BYP7); settings: Compound concentration 1000.0 nM
[33] = molecular target: T1, 5-hydroxytryptamine receptor 1A (Homo sapiens) (UniProt P08908); settings: Compound concentration 10.0 uM
T1 sequence (whole entry): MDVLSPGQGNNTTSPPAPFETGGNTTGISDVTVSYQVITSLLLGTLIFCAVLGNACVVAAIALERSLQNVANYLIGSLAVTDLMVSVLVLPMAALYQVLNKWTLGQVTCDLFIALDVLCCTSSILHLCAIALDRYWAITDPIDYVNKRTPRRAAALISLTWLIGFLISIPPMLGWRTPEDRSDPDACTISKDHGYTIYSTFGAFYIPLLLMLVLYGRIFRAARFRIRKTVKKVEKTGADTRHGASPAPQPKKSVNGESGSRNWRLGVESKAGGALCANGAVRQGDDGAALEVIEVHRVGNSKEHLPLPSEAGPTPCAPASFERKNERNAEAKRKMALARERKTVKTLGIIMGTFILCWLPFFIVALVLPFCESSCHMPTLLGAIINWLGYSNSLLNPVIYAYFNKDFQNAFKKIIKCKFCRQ

[34] = molecular target: 5-hydroxytryptamine receptor 5A (Homo sapiens) (UniProt P47898); settings: Compound concentration 10.0 uM
[35] = molecular target: GABA-A receptor; anion channel (Rattus norvegicus) (UniProt O09028+P15431+P18506+P18508+P19969+P20236+P23574+P23576+P28471+P28473+P30191+P62813+P63079+P63138+Q91ZM7+Q9ES14); settings: Compound concentration 10.0 uM
[36] = molecular target: Muscarinic acetylcholine receptor M5 (Homo sapiens) (UniProt P08912); settings: Compound concentration 10.0 uM
[37] = molecular target: Sigma non-opioid intracellular receptor 1 (Homo sapiens, UniProt Q99720); settings: Compound concentration 10.0 uM

Compound	residual activity [1] [%]	residual activity [2] [%]	residual activity [3] [%]	residual activity [4] [%]	residual activity [5] [%]	residual activity [6] [%]	residual activity [7] [%]	residual activity [8] [%]	residual activity [9] [%]	residual activity [10] [%]	residual activity [11] [%]	residual activity [12] [%]	residual activity [13] [%]	residual activity [14] [%]	residual activity [15] [%]	residual activity [16] [%]	residual activity [17] [%]	residual activity [18] [%]	residual activity [19] [%]	residual activity [20] [%]	other results
O=C(NC[C@@H]1[C@H]2CN(C(=O)OCc3cc(C(F)(F)F)cc(C(F)(F)F)c3)C[C@@H]12)c1ccc2[nH]nnc2c1 [BI 2545]	87	95	87	89	100	86	83	100	100	81	88	88	100	100	83	91	95	98	90	88	residual activity [21]: 84%; residual activity [22]: 100%; residual activity [23]: 65%; residual activity [24]: 75%; residual activity [25]: 83%; residual activity [26]: 100%; residual activity [27]: 82%; residual activity [28]: 100%; residual activity [29]: 100%; residual activity [30]: 75%; residual activity [31]: 99%; residual activity [32]: 100%; inhibition [33]: 0.91%; inhibition [34]: 33.2%; inhibition [35]: 1.13%; inhibition [36]: 15.3%; inhibition [37]: 51.2%
Cc1nccc(COC(=O)N2C[C@@H]3[C@@H](CNC(=O)c4ccc5[nH]nnc5c4)[C@@H]3C2)n1 [BI 3017]	100	80	99	100	94	99	100	100	100	100	79	85	87	95	92	100	100	97	90	100	residual activity [21]: 79%; residual activity [22]: 98%; residual activity [23]: 97%; residual activity [24]: 86%; residual activity [25]: 73%; residual activity [26]: 100%; residual activity [27]: 100%; residual activity [28]: 74%; residual activity [29]: 54%; residual activity [30]: 100%; residual activity [31]: 100%; residual activity [32]: 91%; inhibition [33]: -7.66%; inhibition [34]: 13.2%; inhibition [35]: 9.85%; inhibition [36]: -9.7%; inhibition [37]: 3.21%
